In ChEMBL document CHEMBL1157280, “Immunomodulatory principles of Dichrocephala bicolor” (J Nat Prod, 1999):
≈ marks a conversion by molar mass, not a printed value. Calls of active or inactive are those of the source. The rule behind the calls is not given here.

How the values were obtained:
Homo sapiens [1] = species: Homo sapiens; assay: Induction of phytohemagglutininin-activated HMNC proliferation assessed as [3H]thymidine uptake at 10 ug/mL after 3 days by lymphoproliferation test relative to control; format: functional
Homo sapiens [2] = species: Homo sapiens; assay: Induction of resting HMNC proliferation assessed as [3H]thymidine uptake at 10 ug/mL after 3 days by lymphoproliferation test relative to control; format: functional
Homo sapiens [3] = species: Homo sapiens; assay: Immunomodulatory activity in resting HMNC assessed as IFN-gamma production at 10 ug/mL after 3 days by EIA realtive to control; format: functional
Homo sapiens [4] = species: Homo sapiens; assay: Immunomodulatory activity in phytochemagglutininin-stimulatedHMNC assessed as IFN-gamma production at 10 ug/mL after 3 days by EIA realtive to control; format: functional
[5] = (§1) Immunomodulatory activity in phytochemagglutininin-stimulatedHMNC assessed as IFN-gamma production after 3 days by EIA; format: functional, Homo sapiens
Homo sapiens [6] = species: Homo sapiens; assay: as §1; format: functional
[7] = Induction of phytohemagglutininin-activated HMNC proliferation assessed as [3H]thymidine uptake after 3 days by lymphoproliferation test; format: functional, Homo sapiens
[8] = (§2) Immunomodulatory activity in resting HMNC assessed as IFN-gamma production after 3 days by EIA; format: functional, Homo sapiens
Homo sapiens [9] = species: Homo sapiens; assay: as §2; format: functional
[10] = Induction of resting HMNC proliferation assessed as [3H]thymidine uptake after 3 days by lymphoproliferation test; format: functional, Homo sapiens

Row | Structure (SMILES) | Activity (Homo sapiens [1]) | Activity (Homo sapiens [2]) | Activity (Homo sapiens [3]) | Activity (Homo sapiens [4]) | EC50 [5] [µg/mL] | Activity (Homo sapiens [6]) | EC50 [7] [µg/mL] | EC50 [8] [µg/mL] | Activity (Homo sapiens [9]) | EC50 [10] [µg/mL]
1 | O=C(O)/C=C/c1ccc(O)c(O)c1 | inactive | inactive | inactive | inactive | – | – | – | – | – | –
2 | COC(=O)[C@]1(O)C[C@H](OC(=O)/C=C/c2ccc(O)c(O)c2)[C@@H](O)[C@@H](OC(=O)/C=C/c2ccc(O)c(O)c2)C1 | inactive | inactive | – | – | – | – | – | – | – | –
3 | O=C(/C=C/c1ccc(O)c(O)c1)O[C@H]1[C@@H](OC(=O)/C=C/c2ccc(O)c(O)c2)C[C@](O)(C(=O)O)C[C@@H]1O | 78.4% | 726 cpm | 30.5 pg/mL | Active | 5 (≈ 9.68 µM) | Dose-dependent effect | 8.1 (≈ 15.7 µM) | 1.25 (≈ 2.42 µM) | Dose-dependent effect | 4.4 (≈ 8.52 µM)
4 | C[C@@H]1O[C@@H](OC[C@H]2O[C@@H](Oc3c(-c4ccc(O)c(O)c4)oc4cc(O)cc(O)c4c3=O)[C@H](O)[C@@H](O)[C@@H]2O)[C@H](O)[C@H](O)[C@H]1O | inactive | inactive | – | – | – | – | – | – | – | –
5 | CCOC(=O)[C@]1(O)C[C@H](OC(=O)/C=C/c2ccc(O)c(O)c2)[C@@H](OC(=O)/C=C/c2ccc(O)c(O)c2)[C@@H](O)C1 | inactive | inactive | – | – | – | – | – | – | – | –
6 | O=C(/C=C/c1ccc(O)c(O)c1)O[C@@H]1[C@@H](OC(=O)/C=C/c2ccc(O)c(O)c2)C[C@@](O)(C(=O)O)C[C@@H]1O | inactive | inactive | – | – | – | – | – | – | – | –
7 | O=C(/C=C/c1ccc(O)c(O)c1)O[C@@H]1C[C@](O)(C(=O)O)C[C@@H](OC(=O)/C=C/c2ccc(O)c(O)c2)[C@H]1O | inactive | inactive | – | – | – | – | – | – | – | –
8 | O=C(/C=C/c1ccc(O)c(O)c1)O[C@@H]1C[C@](O)(C(=O)O)C[C@@H](O)[C@H]1O [CHLOROGENIC ACID] | 97.9% | 910 cpm | 38.5 pg/mL | Active | 2.8 (≈ 7.9 µM) | Dose-dependent effect | 4.9 (≈ 13.8 µM) | 3.9 (≈ 11 µM) | Dose-dependent effect | 1.54 (≈ 4.35 µM)
